# How the values were obtained:
# [1] = test system: herpes simplex virus type 1 (HSV-1) strain F; assay: Virus inactivating reaction with HSV-1 in sample solution, remaining infectious virus by plaque assay; format: cell-based
# [2] = test system: influenza virus A/Aichi (H3N2); assay: Virus inactivating reaction with influenza virus A in sample solution, remaining infectious virus by plaque assay; format: cell-based; conditions: for Relative Inactivating Efficiency: relative to 0.01% CAE alone
# [3] = 0.1 mM catechin compound alone, pH 4.0, 30° C. 5 min
# [4] = 0.1 mM catechin compound, 0 M arginine, pH 4.0, relative to 0.1 mM of the same compound alone
# [5] = 0.1 mM catechin compound, 0.2 M arginine, pH 4.0, relative to 0.1 mM of the same compound alone
# [6] = 0.5 mM catechin compound, 0 M arginine, pH 4.0, relative to 0.1 mM of the same compound alone
compound,measurement,setting,value
O=C(O[C@@H]1Cc2c(O)cc(O)cc2O[C@@H]1c1ccc(O)c(O)c1)c1cc(O)c(O)c(O)c1 [(−)epicatechin gallate],"remaining viral titer, % of the viral amount before inactivation",[1]; [3],0.04%
same,Relative Inactivating Efficiency,[1]; [4],1 times
same,Relative Inactivating Efficiency,[1]; [5],59 times
same,Relative Inactivating Efficiency,[1]; [6],27 times
"N=C(N)NCCC[C@H](N)C(=O)O [Arginine, arginine]",Relative Inactivating Efficiency,"[1]; 0% CAE, 0.058 M arginine alone, pH 4.0, 10 mM sodium citrate, relative to 0.005% CAE alone",0.03 times
same,Relative Inactivating Efficiency,[1]; pH 4,1075 times
"O=C(/C=C/c1ccc(O)c(O)c1)OCCc1ccccc1 [Caffeic acid phenethyl ester, caffeic acid phenethyl ester]","remaining viral titer, % of that obtained before inactivation","[1]; 0.01 mM caffeic acid phenethyl ester alone, pH 4.0, 30° C. 5 min",0.3%
same,Relative Inactivating Efficiency,"[1]; 0.01 mM caffeic acid phenethyl ester, 0 M arginine, pH 4.0, relative to 0.01 mM compound alone",1 times
same,Relative Inactivating Efficiency,"[1]; 0.01 mM caffeic acid phenethyl ester, 0.2 M arginine, pH 4.0, relative to 0.01 mM compound alone",8 times
same,Relative Inactivating Efficiency,"[1]; 0.05 mM caffeic acid phenethyl ester, 0 M arginine, pH 4.0, relative to 0.01 mM compound alone",1 times
same,Relative Inactivating Efficiency,"[1]; 0.05 mM caffeic acid phenethyl ester, 0.2 M arginine, pH 4.0, relative to 0.01 mM compound alone",122 times
same,Relative Inactivating Efficiency,"[1]; 0.1 mM caffeic acid phenethyl ester, 0 M arginine, pH 4.0, relative to 0.01 mM compound alone",1 times
same,Relative Inactivating Efficiency,"[1]; 0.1 mM caffeic acid phenethyl ester, 0.2 M arginine, pH 4.0, relative to 0.01 mM compound alone",>243 times
same,Relative Inactivating Efficiency,"[1]; 0.1 mM caffeic acid phenethyl ester, 0.2 M arginine, pH 4.0, relative to 0.01 mM compound alone, listed as caffeic acid phenethyl ester",more than 243 times
"O=C(O)/C=C/c1ccc(O)c(O)c1 [Caffeic acid, caffeic acid]","viral titer after inactivation, % of that before inactivation","[1]; 0.1 mM caffeic acid alone, pH 4.0 (Comparative Example 2)",0.13%
same,"viral titer after inactivation, % of the viral amount before inactivation","[1]; 0.1 mM caffeic acid alone, pH 4.0, 30° C. 5 min (Example 1)",0.3%
same,Relative Inactivating Efficiency,"[1]; 0.1 mM caffeic acid, 0 M NaCl, pH 4.0, 20 mM sodium acetate, relative to 0.1 mM caffeic acid alone",1 times
same,Relative Inactivating Efficiency,"[1]; 0.1 mM caffeic acid, 0 M arginine, pH 4.0, 30° C. 5 min, relative to 0.1 mM caffeic acid alone",1 times
same,Relative Inactivating Efficiency,"[1]; 0.1 mM caffeic acid, 0.2 M NaCl, pH 4.0, relative to 0.1 mM caffeic acid alone",0.010 times
same,Relative Inactivating Efficiency,"[1]; 0.1 mM caffeic acid, 0.2 M NaCl, pH 4.0, relative to 0.1 mM caffeic acid alone, listed as caffeic acid",0.01 times
same,Relative Inactivating Efficiency,"[1]; 0.1 mM caffeic acid, 0.2 M arginine, pH 4.0, 30° C. 5 min, relative to 0.1 mM caffeic acid alone",1.5 times
same,Relative Inactivating Efficiency,"[1]; 0.5 mM caffeic acid, 0 M arginine, pH 4.0, 30° C. 5 min, relative to 0.1 mM caffeic acid alone",1.3 times
same,Relative Inactivating Efficiency,"[1]; 0.5 mM caffeic acid, 0.2 M NaCl, pH 4.0, relative to 0.1 mM caffeic acid alone",0.009 times
same,Relative Inactivating Efficiency,"[1]; 0.5 mM caffeic acid, 0.2 M arginine, pH 4.0, 30° C. 5 min, relative to 0.1 mM caffeic acid alone",3.3 times
same,Relative Inactivating Efficiency,"[1]; 1 mM caffeic acid, 0 M arginine, pH 4.0, 30° C. 5 min, relative to 0.1 mM caffeic acid alone",1.4 times
same,Relative Inactivating Efficiency,"[1]; 1.0 mM caffeic acid, 0.2 M NaCl, pH 4.0, relative to 0.1 mM caffeic acid alone",0.007 times
same,Relative Inactivating Efficiency,"[1]; 1 mM caffeic acid, 0.2 M arginine, pH 4.0, 30° C. 5 min, relative to 0.1 mM caffeic acid alone",7.8 times
"O=C1O[C@H]([C@@H](O)CO)C(=O)C1=O [Dehydroascorbic acid, dehydroascorbic acid]","remaining viral titer, % of the viral amount before inactivation","[1]; 0.1 mM dehydroascorbic acid alone, pH 4.0, 30° C. 5 min",7.3%
same,Relative Inactivating Efficiency,"[1]; 0.1 mM dehydroascorbic acid, 0 M arginine, pH 4.0, relative to 0.1 mM compound alone",1 times
same,Relative Inactivating Efficiency,"[1]; 0.1 mM dehydroascorbic acid, 0.2 M arginine, pH 4.0, relative to 0.1 mM compound alone",248 times
same,Relative Inactivating Efficiency,"[1]; 1 mM dehydroascorbic acid, 0 M arginine, pH 4.0, relative to 0.1 mM compound alone",1 times
same,Relative Inactivating Efficiency,"[1]; 1 mM dehydroascorbic acid, 0.2 M arginine, pH 4.0, relative to 0.1 mM compound alone",1440 times
same,Relative Inactivating Efficiency,"[1]; 10 mM dehydroascorbic acid, 0 M arginine, pH 4.0, relative to 0.1 mM compound alone",1 times
same,Relative Inactivating Efficiency,"[1]; 10 mM dehydroascorbic acid, 0.2 M arginine, pH 4.0, relative to 0.1 mM compound alone",>7200 times
same,Relative Inactivating Efficiency,"[1]; 10 mM dehydroascorbic acid, 0.2 M arginine, pH 4.0, relative to 0.1 mM compound alone, listed as dehydroascorbic acid",more than 7200 times
"[Cl-].[Na+] [NaCl, reference compound]",Relative Inactivating Efficiency,[1]; pH 4,0.011 times
(−)epigallocatechin gallate,"remaining viral titer, % of the viral amount before inactivation",[1]; [3],0.02%
same,Relative Inactivating Efficiency,[1]; [4],1 times
same,Relative Inactivating Efficiency,[1]; [5],12 times
same,Relative Inactivating Efficiency,[1]; [6],268 times
cocoyl arginine ethyl ester [CAE],"viral titer after inactivation, % of that before inactivation","[2]; 0.01% CAE alone, pH 4.8, 30° C. 5 min",3.1%
same,Relative Inactivating Efficiency,"[2]; 0.01% CAE, 0 M arginine, pH 4.8, 10 mM sodium citrate",1 Times
same,Relative Inactivating Efficiency,"[2]; 0.01% CAE, 0.115 M arginine, pH 4.8",82 Times
same,Relative Inactivating Efficiency,"[2]; 0.02% CAE, 0.115 M arginine, pH 4.8",63 Times
same,"viral titer after inactivation, % of that before inactivation","[1]; 0.005% CAE alone, pH 4.0, 30° C. 5 min",0.4%
same,Relative Inactivating Efficiency,"[1]; 0.005% CAE, 0 M arginine, pH 4.0, 10 mM sodium citrate, relative to 0.005% CAE alone",1 times
same,Relative Inactivating Efficiency,"[1]; 0.005% CAE, 0.058 M arginine, pH 4.0, relative to 0.005% CAE alone",1.13 times
same,Relative Inactivating Efficiency,"[1]; 0.005% CAE, 0.115 M arginine, pH 4.0, relative to 0.005% CAE alone",20 times

# Source: patent US9872499B2, “Virus-inactivating composition containing low-molecular weight compound and arginine” (priority 2010, dated 2018)
